The values below come from ChEMBL document CHEMBL1151341, “Constituents of Nealchornea yapurenis (Euophorbiaceae)” (J Nat Prod, 1980).

The structures appear in SMILES notation. Active and inactive are the calls of the source. The calls are words filed in the database; no cut-off is given here.

The test system of the assay is P388. As to the kind of experiment: Antitumor activity against mouse P388 cells xenografted in mouse at 50 to 400 mg/kg. It counts as functional, organism-based.
As to `CC[C@H](CC[C@@H](C)[C@H]1CC[C@H]2[C@@H]3CC=C4C[C@@H](O)CC[C@]4(C)[C@H]3CC[C@]12C)C(C)C`, the result was inactive.
With `CCCCCCCCCCCCCCCCCCCCCCCCCC(=O)O` the entry was “inactive”; with `CC[C@H](CC[C@@H](C)[C@H]1CC[C@H]2[C@@H]3CC=C4C[C@@H](O[C@@H]5O[C@H](CO)[C@@H](O)[C@H](O)[C@H]5O)CC[C@]4(C)[C@H]3CC[C@]12C)C(C)C`, “inactive”; with `COc1cc2ccc(=O)oc2cc1O`, “inactive”.
